Experiments:
Acute toxicity = type: in vivo; conditions: 7 days
Experimental: Test Example 2: Acute Toxicity
0.1, 1.0 or 10 mg/kg of Compound 5 or 33 was intravenously administered to Crj:CD rats (male, 5 weeks old), 6 rats in one group. 7 days after the administration, a toxicity test was carried out.

blood platelets [1] = assay: Thrombocytopenia-inhibiting effect in X-ray-irradiated mice; type: in vivo, mouse (BDF1); conditions: 10 days after 5 Gy X-ray; 0.1 mg/kg i.v. within 2 h; mean ± SD; vehicle per series 10.3, 6.8, 6.7; non-treatment 68.2, 96.9, 73.0
Method in brief: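 Female BDF1 mice, 6 weeks old, six per group, given 5 Gy whole-body X-ray, then 0.1 mg/kg i.v. via tail vein within 2 hours. Platelets counted by hemocytometer in fundus-vein blood 10 days later; untreated and vehicle groups run alongside.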

blood platelets [2] = assay: Blood-platelet-increasing effect upon normal mouse; type: in vivo, mouse (BDF1); conditions: normal mice; 6 days after 0.1 mg/kg i.v.; mean ± SD; vehicle per series 58.2, 63.0, 71.1
Method in brief: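 Female BDF1 mice, 6 weeks old (5 per group), received test sample at 0.1 mg/kg into the caudal vein. Six days later, fundus-vein blood was taken and platelets counted on a multi-channel hemocytometer, compared against vehicle-treated animals.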

[3] = Life-span-increasing effect on irradiation of a lethal dose of radiation; type: in vivo, mouse (BDF1); conditions: 10 mice/group, 9 Gy X-ray, 0.1 mg/kg i.v. days 0, 4, 8
Experimental: Pharmacological Test 4: Life-Span-Increasing Effect on Irradiation of a Lethal Dose of Radiation
An experiment was carried out by using 6 week old female BDF1 mice purchased from Japan SLC Co., Ltd., with 10 mice made one group.
The entire bodies of the entire body of the mice were irradiated with 9 Gy of X-rays by using a Hitachi X-ray irradiator (MBR-1520R), and the day on which the X-ray was irradiated was referred to as "day 0".

[4] = tested on: marrow cells (mononuclear cell fraction); assay: Proliferation-stimulating effect on marrow cell of mouse (3H-TdR uptake); type: cell-based, mouse (BALB/c); conditions: percentage of control, 72 h; for activity at 0.1 µg/mL: 10^-1 μg/ml; for activity at 0.01 µg/mL: 10^-2 μg/ml; for activity at 0.001 µg/mL: 10^-3 μg/ml
Method in brief: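 Mononuclear marrow cell fraction from 7-week-old female BALB/c mouse thigh bone, 1.5×10^6 cells/ml in 10% FCS RPMI 1640, cultured with test sample 72 h at 37° C. ³H-thymidine (0.5 μCi/well) then added for 8 h; nuclear ³H-TdR uptake counted by liquid scintillation.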

[5] = tested on: marrow cells (mononuclear cell fraction); assay: Effect on marrow cell of monkey (3H-TdR uptake); type: cell-based, croo monkey; conditions: Primates, 96 h, percentage of control, 4 days
Experimental: Pharmacological Test 2: Effect on Marrow Cell of Monkey
Marrow cells were prepared from the humerus of a croo monkey, and an MNF obtained by fractionation using a Lymphoprep (Nycomed Pharma AS, Oslo, Norway) was used in the following experiment.
The MNF was suspended in an RPMI 1640 medium added with 10% blood plasma of a croo monkey to make its concentration 1×10^6 cells/ml.
10 μl/well of a sample with a predetermined concentration and 100 μl/well of the above-prepared MNF were placed on a round-bottomed 96 well plate, and incubated under the conditions of 37° C. and 5% CO2 for 4 days. Thereafter, 0.5 μCi/well of ^3 H-TdR was added. After 6 hours, the cells were harvested, and the amount of the ^3 H-TdR taken in the nuclei was measured by a liquid scintillation counter.

[6] = tested on: mononuclear cell fraction of human umbilical cord blood; assay: Proliferation-stimulating effect on mononuclear cell fraction of human umbilical cord blood (3H-TdR uptake); type: cell-based; conditions: 96 h, percentage of control, 4 days
Excerpt: Pharmacological Test 3: Proliferation-Stimulating Effect on Mononuclear Cell Fraction of Human Umbilical Cord Blood
It is extremely difficult to obtain human marrow cells. In addition, human umbilical cord blood contains stem cells (Nakahata, T. & Ogwa, M., J. Clin. Inveet. 70, 1324-1328 (1982)), so that it can be a good source of hematopoietic stem/progenitor cell supply (H. E. Broxneyer et al, Proc. Natl. Acad. Sci. USA, 86, 3828-3832 (1989)). For these reasons, the effect on human was examined by using, instead of human marrow cells, human umbilical cord blood.
To human umbilical cord blood was added an equal amount of RPMI 1640. This was placed on a Lymphoprep and centrifugal. The mononuclear cell fraction (MNF) thus obtained was used in the following experiment.
The concentration of the MNF was adjusted to 1×10^6 cells/ml by using an RPMI 1640 added with 10% auto-blood plasma as a culture medium. 10 μl/well of a sample with a predetermined concentration and 100 μl/well of the above-prepared MNF were placed on a round-bottomed 96 well plate and incubated under the conditions of 37° C. and 5% CO2 for 4 days. Thereafter, 0.5 μCi/well of ^3 H-TdR was added. After 8 hour incubation, the cells were harvested, and the amount of the 3H-TdR taken in the nuclei was measured by a liquid scintillation counter.

[7] = day 10, controls per series 10, 10, 10, 10, 10, 8
[8] = day 15, controls per series 8, 9, 5, 5, 7, 1
[9] = day 20, controls per series 4, 5, 1, 2, 3, 0
[10] = day 25, controls per series 3, 3, 0, 0, 2, 0
[11] = day 30, controls per series 1, 1, 0, 0, 0, 0

SMILES | death of rats (Acute toxicity; 10 mg/kg i.v.) | post-mortem examination (Acute toxicity; i.v. 0.1, 1.0 or 10 mg/kg) | Number of Blood Platelets (blood platelets [1]) | Number of Blood Platelets (blood platelets [2]) | Number of Surviving Mice [3, 7] [mice] | Number of Surviving Mice [3, 8] [mice] | Number of Surviving Mice [3, 9] [mice] | Number of Surviving Mice [3, 10] [mice] | Number of Surviving Mice [3, 11] [mice] | Number of Surviving Mice ([3]; day 35, all controls 0) [mice] | Number of Surviving Mice ([3]; day 40, all controls 0) [mice] | activity at 0.1 µg/mL [4] [%] | activity at 0.01 µg/mL [4] [%] | activity at 0.001 µg/mL [4] [%] | activity at 0.1 µg/mL ([5]; 10^-1 μg/ml) [%] | activity at 0.01 µg/mL ([5]; 10^-2 μg/ml) [%] | activity at 0.1 µg/mL ([6]; 10^-1 μg/ml) [%] | activity at 0.01 µg/mL ([6]; 10^-2 μg/ml) [%] | activity at 0.001 µg/mL ([6]; 10^-3 μg/ml) [%]
CCCCCCCCCCCCCCC[C@@H](O)[C@H](CO[C@H]1O[C@H](CO)[C@H](O)[C@H](O)[C@H]1O)NC(=O)CCCCCCCCCCCCC [Compound 5, (2S,3R)-1-(α-D-galactopyranosyloxy)-2-tetradecanoylamino-3-octadecanol] | the rats did not die | no abnormality was found | 20.3 ± 4.5 × 10^4 /μl | 106.0 ± 9.0 × 10^4 /μl | 10 | 9 | 9 | 9 | 9 | 9 | 9 | 377 | 261 | 234 |  |  |  |  | 
CCCCCCCCCCCCCCCCCCCCCCCC[C@@H](O)C(=O)N[C@@H](CO[C@H]1O[C@H](CO)[C@H](O)[C@H](O)[C@H]1O)[C@H](O)[C@H](O)CCCCCCCCCCCCCC [Compound 25] |  |  | 15.6 ± 5.3 × 10^4 /μl | 124.1 ± 14.7 × 10^4 /μl | 10 | 10 | 7 | 7 | 5 | 5 | 5 | 331 | 161 | 153 | 184 | 186 | 336 | 319 | 229

Source: US6071884A, “Pharmaceutical compositions and therapeutic methods” (Kirin Beer Kabushiki Kaisha, priority 1992, dated 2000)
